Converted amounts (≈) assume the structure as drawn. The source made the active and inactive calls. The rule behind the calls is not given here.
Columns and labels:
[1] = target: CDK9/cyclin T1 (Homo sapiens, UniProt P50750)
[2] = target: CDK2/Cyclin A2 (Homo sapiens, UniProt P24941+P20248)
Description: (§1) Inhibition of human CDK2/cyclin-A2 using H1 histone as substrate after 2 hrs by [gamma-33P]-ATP assay

[3] = tested on: HepG2; assay: cells; details: Homo sapiens, HepG2, 72 h
Description: Antiproliferative activity against human HepG2 cells assessed as reduction in cell viability after 72 hrs by MTT assay

[4] = tested on: A549; assay: cells; details: Homo sapiens, A549, 72 h
Description: Antiproliferative activity against human A549 cells assessed as reduction in cell viability after 72 hrs by MTT assay

[5] = tested on: HCT-116; assay: cells; details: Homo sapiens, HCT-116, 72 h
Description: Antiproliferative activity against human HCT116 cells assessed as reduction in cell viability after 72 hrs by MTT assay

[6] = tested on: MV4-11; assay: cells; details: Homo sapiens, MV4-11, 72 h
Description: Antiproliferative activity against human MV4-11 cells assessed as reduction in cell viability after 72 hrs by MTT assay

[7] = target: CDK2/Cyclin A2 (Homo sapiens, UniProt P24941)
Description: as §1

[8] = physchem; details: methanesulfonic acid buffer, pH 4.5
Description: Solubility of compound in methanesulfonic acid buffer at pH 4.5

[9] = physchem
Description: Intrinsic solubility of compound by potentiometric titration assay

[10] = physchem; details: buffer, pH 7.4
Description: Hydrophobicity, log D of compound at pH 7.4

[11] = tested on: MV4-11; assay: Antitumor activity against human MV4-11 cells xenografted in BALB/c mouse assessed as reduction in tumour growth at 5 mg/kg, iv administered every other day for 21 days; assay type: functional, organism-based

Chain of CDK9/cyclin T1 (O60563 whole entry): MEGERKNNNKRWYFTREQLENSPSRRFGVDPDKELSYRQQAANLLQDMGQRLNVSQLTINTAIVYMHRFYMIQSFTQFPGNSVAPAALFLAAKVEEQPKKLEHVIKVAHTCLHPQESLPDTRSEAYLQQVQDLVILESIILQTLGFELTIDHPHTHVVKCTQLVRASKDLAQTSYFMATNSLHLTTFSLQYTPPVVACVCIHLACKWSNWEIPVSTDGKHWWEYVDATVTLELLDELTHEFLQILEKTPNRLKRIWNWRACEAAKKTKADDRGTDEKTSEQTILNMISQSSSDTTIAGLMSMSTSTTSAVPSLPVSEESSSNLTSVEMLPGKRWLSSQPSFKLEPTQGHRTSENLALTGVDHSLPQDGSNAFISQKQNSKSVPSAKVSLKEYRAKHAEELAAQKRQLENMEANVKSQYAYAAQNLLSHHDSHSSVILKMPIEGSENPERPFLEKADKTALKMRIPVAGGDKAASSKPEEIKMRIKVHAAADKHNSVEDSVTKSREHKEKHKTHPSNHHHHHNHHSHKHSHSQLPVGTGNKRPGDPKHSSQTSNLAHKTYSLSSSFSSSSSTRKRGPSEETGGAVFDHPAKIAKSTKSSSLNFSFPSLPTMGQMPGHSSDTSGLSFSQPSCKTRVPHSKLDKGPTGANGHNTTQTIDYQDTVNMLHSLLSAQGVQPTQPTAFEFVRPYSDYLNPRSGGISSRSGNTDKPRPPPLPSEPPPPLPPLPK
Chain of CDK9/cyclin T1 (P50750 whole entry): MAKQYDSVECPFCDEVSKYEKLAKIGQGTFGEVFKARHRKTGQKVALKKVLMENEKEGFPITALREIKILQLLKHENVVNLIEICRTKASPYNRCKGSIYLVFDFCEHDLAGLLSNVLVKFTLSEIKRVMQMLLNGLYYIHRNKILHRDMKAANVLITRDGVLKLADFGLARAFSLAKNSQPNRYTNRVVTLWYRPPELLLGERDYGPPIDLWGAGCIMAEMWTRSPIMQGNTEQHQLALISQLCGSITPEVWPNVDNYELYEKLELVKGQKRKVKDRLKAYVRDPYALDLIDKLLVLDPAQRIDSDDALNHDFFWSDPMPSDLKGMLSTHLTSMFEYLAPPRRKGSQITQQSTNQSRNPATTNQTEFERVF

Row | IC50 [3] [µM] | SMILES | also measured
1 | 14.8 | CC(C)Oc1c(O)cc(O)c2c(=O)cc(-c3ccc(N4CCN(C)CC4)cc3)oc12 | IC50 [1]: 179 nM; IC50 [2]: Not Active; IC50 [4]: 4.1 µM; IC50 [5]: 12.8 µM; IC50 [6]: 6.3 µM
2 | 15.8 | CN1CCN(c2ccc(-c3cc(=O)c4c(O)cc(O)c(OC5CCCC5)c4o3)cc2)CC1 | 
3 | 8.1 | CN1CCN(c2ccc(-c3cc(=O)c4c(O)cc(O)c(Oc5c[nH][nH]c5=O)c4o3)cc2)CC1 | 
4 | 27.8 | CN1CCN(c2ccc(-c3cc(=O)c4c(O)cc(O)c(OC5CCCCC5)c4o3)cc2)CC1 | 
5 | 78.3 | COc1c(O)cc(O)c2c(=O)cc(-c3ccc(N4CCOCC4)cc3)oc12 | 
6 | 7 | CN1CCN(c2ccc(-c3cc(=O)c4c(O)cc(O)c(OCc5ccco5)c4o3)cc2)CC1 | 
7 | 6.3 | Cc1n[nH]c(C)c1Oc1c(O)cc(O)c2c(=O)cc(-c3ccc(N4CCN(C)CC4)cc3)oc12 | IC50 [1]: 12.7 nM; IC50 [7]: 830 nM; IC50 [4]: 2.5 µM; IC50 [5]: 3.3 µM; IC50 [6]: 2.2 µM
8 | > 100 | COc1c(O)cc(O)c2c(=O)cc(-c3ccc(N4CCCC4)cc3)oc12 | 
9 | 39.4 | CN1CCC(Oc2c(O)cc(O)c3c(=O)cc(-c4ccc(N5CCNCC5)cc4)oc23)CC1 | 
10 | 6.6 | COc1c(O)cc(O)c2c(=O)cc(-c3ccc(N4CCN(C)CC4)cc3)oc12 | 
11 | 13.1 | COc1c(O)cc(O)c2c(=O)cc(-c3cccc(N4CCN(C)CC4)c3)oc12 | 
12 | > 100 | CN1CCN(c2ccc(-c3cc(=O)c4c(O)cc(O)c(OC5CCNC5)c4o3)cc2)CC1 (stereo not given) | 
13 | 6.7 | CN1CCC(Oc2c(O)cc(O)c3c(=O)cc(-c4ccc(N5CCN(C)CC5)cc4)oc23)CC1 | 
14 | 8.5 | Cc1n[nH]c(C)c1Oc1c(O)cc(O)c2c(=O)cc(-c3ccc(N4CCNCC4)cc3)oc12 | IC50 [1]: 10.8 nM; IC50 [7]: 1040 nM; IC50 [4]: 5.5 µM; IC50 [5]: 4.8 µM; IC50 [6]: 4.4 µM; solubility [8]: 30 µg/mL (≈ 66.9 µM); solubility [9]: 1 µg/mL (≈ 2.23 µM); logD [10]: 2.91
15 | 17.9 | COc1c(O)cc(O)c2c(=O)cc(-c3ccc(N4CCNCC4)cc3)oc12 | 
16 | 18 | CC(C)Oc1c(O)cc(O)c2c(=O)cc(-c3ccc(N4CCNCC4)cc3)oc12 | IC50 [1]: 94.1 nM; IC50 [2]: Not Active; IC50 [4]: 5.5 µM; IC50 [5]: 3.4 µM; IC50 [6]: 6.1 µM
17 | 8.3 | O=c1cc(-c2ccc(N3CCNCC3)cc2)oc2c(OCc3ccco3)c(O)cc(O)c12 | 
18 | 18.2 | COc1c(O)cc(O)c2c(=O)cc(-c3ccc(N4CCCNCC4)cc3)oc12 | 

Second part, the compound before the results:

Row | SMILES | IC50 [3] [µM] | also measured
19 | COc1c(O)cc(O)c2c(=O)cc(-c3ccccc3Br)oc12 | 33.5 | 
20 | O=c1cc(-c2ccc(N3CCNCC3)cc2)oc2c(OC3CCNC3)c(O)cc(O)c12 (stereo not given) | > 100 | 
21 | COc1c(O)cc(O)c2c(=O)cc(-c3ccc([N+](=O)[O-])cc3)oc12 | > 100 | 
22 | COc1c(O)cc(O)c2c(=O)cc(-c3ccccc3Cl)oc12 | > 100 | 
23 | COc1c(O)cc(O)c2c(=O)cc(-c3cccc(N4CCCNCC4)c3)oc12 | 21.7 | 
24 | O=c1cc(-c2ccc(N3CCNCC3)cc2)oc2c(OC3CCCCC3)c(O)cc(O)c12 | 22.8 | 
25 | COc1c(O)cc(O)c2c(=O)cc(-c3ccccc3C(F)(F)F)oc12 | > 100 | 
26 | COc1c(O)cc(O)c2c(=O)cc(-c3cccc(N4CCNCC4)c3)oc12 | 9.9 | 
27 | COc1c(O)cc(O)c2c(=O)cc(-c3cccc(N4CCOCC4)c3)oc12 | > 100 | 
28 | COc1cccc2c1C(=O)c1c(O)c3c(c(O)c1C2=O)C[C@@](O)(C(=O)CO)C[C@@H]3O[C@H]1C[C@H](N)[C@H](O)[C@H](C)O1 |  | inhibition [11]: Active
29 | CCN(CC)c1ccc(-c2cc(=O)c3c(O)cc(O)c(OC)c3o2)cc1 | 6.4 | 
30 | O=c1cc(-c2ccc(N3CCNCC3)cc2)oc2c(OC3CCCC3)c(O)cc(O)c12 | 5.3 | 
31 | COc1c(O)cc(O)c2c(=O)cc(-c3cccc(Br)c3)oc12 | 38.2 | 
32 | COc1c(O)cc(O)c2c(=O)cc(-c3cccc(C(F)(F)F)c3)oc12 | > 100 | 

— ChEMBL document CHEMBL4364281, “Design of wogonin-inspired selective cyclin-dependent kinase 9 (CDK9) inhibitors with potent in vitro and in vivo antitumor activity” (Eur J Med Chem, 2019)
